Legend:
Assay type in all cases: in vivo
[1] = test system: redroot pigweed (Amaranthus retroflexus); assay: Test G Pre-Emergence Protocol; conditions: Amaranthus retroflexus, pre-emergence, 312 h, evaluated after 13 days; for pest or weed control at 15.625 g/ha: 15.625 g ai/ha; for pest or weed control at 15.625 g/ha / pest or weed control at 250 g/ha: read-out: Pigweed, Redroot damage rating (100=total damage to plant; 0=no damage to plant); for pest or weed control at 62.5 g/ha: 62.5 g ai/ha, 100=total damage to plant, 0=no damage to plant, read-out: plant damage rating, Pigweed, Redroot; for pest or weed control at 250 g/ha: 250 g ai/ha
How it was run: (§1)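 Visual injury (0–100) at day 13 after a single pre-emergence spray. Rates: 15.625, 62.5, 250 g/ha in acetone–water 50:50 with 0.5% Tween 20. Growth conditions: 24/16° C, 14 h light, 65% humidity.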

corn (Zea mays) [2] = assay: Test G Pre-Emergence Protocol; conditions: Zea mays, pre-emergence, 312 h, evaluated after 13 days; for plant injury at 15.625 g/ha: 15.625 g ai/ha; for plant injury at 15.625 g/ha / plant injury at 250 g/ha: read-out: Corn damage rating (100=total damage to plant; 0=no damage to plant); for plant injury at 62.5 g/ha: 62.5 g ai/ha, 100=total damage to plant, 0=no damage to plant, read-out: plant damage rating, Corn; for plant injury at 250 g/ha: 250 g ai/ha
How it was run: as §1

[3] = test system: giant foxtail (Setaria faberi); assay: Test G Pre-Emergence Protocol; conditions: Setaria faberi, pre-emergence, 312 h, evaluated after 13 days; for pest or weed control at 15.625 g/ha: 15.625 g ai/ha; for pest or weed control at 15.625 g/ha / pest or weed control at 250 g/ha: read-out: Foxtail, Giant damage rating (100=total damage to plant; 0=no damage to plant); for pest or weed control at 62.5 g/ha: 62.5 g ai/ha, 100=total damage to plant, 0=no damage to plant, read-out: plant damage rating, Foxtail, Giant; for pest or weed control at 250 g/ha: 250 g ai/ha
How it was run: as §1

[4] = test system: barnyardgrass (Echinochloa crus-galli); assay: Test G Pre-Emergence Protocol; conditions: Echinochloa crus-galli, pre-emergence, 312 h, evaluated after 13 days; for pest or weed control at 15.625 g/ha: 15.625 g ai/ha, read-out: Barnyard grass damage rating (100=total damage to plant; 0=no damage to plant); for pest or weed control at 62.5 g/ha: 62.5 g ai/ha, 100=total damage to plant, 0=no damage to plant, read-out: plant damage rating, Barnyardgrass; for pest or weed control at 250 g/ha: 250 g ai/ha, read-out: Barnyardgrass damage rating (100=total damage to plant; 0=no damage to plant)
How it was run: as §1

[5] = test system: ivy-leaved morning glory (Ipomoea hederacea); assay: Test G Pre-Emergence Protocol; conditions: Ipomoea, pre-emergence, 312 h, evaluated after 13 days; for pest or weed control at 15.625 g/ha: 15.625 g ai/ha, read-out: Morning-glory, Ivy-leaved damage rating (100=total damage to plant; 0=no damage to plant); for pest or weed control at 62.5 g/ha: 62.5 g ai/ha, 100=total damage to plant, 0=no damage to plant, read-out: plant damage rating, Morningglory, Ivy-leaved; for pest or weed control at 250 g/ha: 250 g ai/ha, read-out: Morningglory, Ivy-leaved damage rating (100=total damage to plant; 0=no damage to plant)
How it was run: as §1

[6] = test system: velvetleaf (Abutilon theophrasti); assay: Test G Pre-Emergence Protocol; conditions: Abutilon theophrasti, pre-emergence, 312 h, evaluated after 13 days; for pest or weed control at 15.625 g/ha: 15.625 g ai/ha; for pest or weed control at 15.625 g/ha / pest or weed control at 250 g/ha: read-out: Velvetleaf damage rating (100=total damage to plant; 0=no damage to plant); for pest or weed control at 62.5 g/ha: 62.5 g ai/ha, 100=total damage to plant, 0=no damage to plant, read-out: plant damage rating, Velvetleaf; for pest or weed control at 250 g/ha: 250 g ai/ha
How it was run: as §1

[7] = test system: redroot pigweed (Amaranthus retroflexus); assay: Test G Post-Emergence Protocol; conditions: Amaranthus retroflexus, post-emergence, 312 h; for pest or weed control at 15.625 g/ha: 15.625 g ai/ha, evaluated after 13 days (100=total damage to plant; 0=no damage to plant), read-out: Pigweed, Redroot damage rating; for pest or weed control at 62.5 g/ha: 62.5 g ai/ha, read-out: Pigweed, Redroot damage rating (100=total damage to plant; 0=no damage to plant); for pest or weed control at 62.5 g/ha / pest or weed control at 250 g/ha: evaluated after 13 days; for pest or weed control at 250 g/ha: 250 g ai/ha, read-out: damage to plant, Pigweed, Redroot (100=total damage to plant; 0=no damage to plant)
How it was run: (§2)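 Sow in soil; grow 8 d (24/16 °C, 14 h light, 65% humidity); spray 15.625/62.5/250 g/ha in acetone:water 50:50 + 0.5% Tween 20; grow on, water twice daily; score damage 0–100 at 13 d.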

corn (Zea mays) [8] = assay: Test G Post-Emergence Protocol; conditions: Zea mays, post-emergence, 312 h; for plant injury at 15.625 g/ha: 15.625 g ai/ha, evaluated after 13 days (100=total damage to plant; 0=no damage to plant), read-out: Corn damage rating; for plant injury at 62.5 g/ha: 62.5 g ai/ha, read-out: Corn damage rating (100=total damage to plant; 0=no damage to plant); for plant injury at 62.5 g/ha / plant injury at 250 g/ha: evaluated after 13 days; for plant injury at 250 g/ha: 250 g ai/ha, read-out: damage to plant, Corn (100=total damage to plant; 0=no damage to plant)
How it was run: as §2

[9] = test system: giant foxtail (Setaria faberi); assay: Test G Post-Emergence Protocol; conditions: Setaria faberi, post-emergence, 312 h; for pest or weed control at 15.625 g/ha: 15.625 g ai/ha, evaluated after 13 days (100=total damage to plant; 0=no damage to plant), read-out: Foxtail, Giant damage rating; for pest or weed control at 62.5 g/ha: 62.5 g ai/ha, read-out: Foxtail, Giant damage rating (100=total damage to plant; 0=no damage to plant); for pest or weed control at 62.5 g/ha / pest or weed control at 250 g/ha: evaluated after 13 days; for pest or weed control at 250 g/ha: 250 g ai/ha, read-out: damage to plant, Foxtail, Giant (100=total damage to plant; 0=no damage to plant)
How it was run: as §2

[10] = test system: barnyardgrass (Echinochloa crus-galli); assay: Test G Post-Emergence Protocol; conditions: Echinochloa crus-galli, post-emergence, 312 h; for pest or weed control at 15.625 g/ha: 15.625 g ai/ha, evaluated after 13 days (100=total damage to plant; 0=no damage to plant), read-out: Barnyardgrass damage rating; for pest or weed control at 62.5 g/ha: 62.5 g ai/ha, read-out: Barnyardgrass damage rating (100=total damage to plant; 0=no damage to plant); for pest or weed control at 62.5 g/ha / pest or weed control at 250 g/ha: evaluated after 13 days; for pest or weed control at 250 g/ha: 250 g ai/ha, read-out: damage to plant, Barnyardgrass (100=total damage to plant; 0=no damage to plant)
How it was run: as §2

[11] = test system: ivy-leaved morning glory (Ipomoea hederacea); assay: Test G Post-Emergence Protocol; conditions: Ipomoea, post-emergence, 312 h; for pest or weed control at 15.625 g/ha: 15.625 g ai/ha, evaluated after 13 days (100=total damage to plant; 0=no damage to plant), read-out: Morningglory, Ivy-leaved damage rating; for pest or weed control at 62.5 g/ha: 62.5 g ai/ha, read-out: Morningglory, Ivy-leaved damage rating (100=total damage to plant; 0=no damage to plant); for pest or weed control at 62.5 g/ha / pest or weed control at 250 g/ha: evaluated after 13 days; for pest or weed control at 250 g/ha: 250 g ai/ha, read-out: damage to plant, Morningglory, Ivy-leaved (100=total damage to plant; 0=no damage to plant)
How it was run: as §2

[12] = test system: velvetleaf (Abutilon theophrasti); assay: Test G Post-Emergence Protocol; conditions: Abutilon theophrasti, post-emergence, 312 h; for pest or weed control at 15.625 g/ha: 15.625 g ai/ha, evaluated after 13 days (100=total damage to plant; 0=no damage to plant), read-out: Velvetleaf damage rating; for pest or weed control at 62.5 g/ha: 62.5 g ai/ha, read-out: Velvetleaf damage rating (100=total damage to plant; 0=no damage to plant); for pest or weed control at 62.5 g/ha / pest or weed control at 250 g/ha: evaluated after 13 days; for pest or weed control at 250 g/ha: 250 g ai/ha, read-out: damage to plant, Velvetleaf (100=total damage to plant; 0=no damage to plant)
How it was run: as §2

Structure (SMILES) | pest or weed control at 15.625 g/ha [1] | pest or weed control at 62.5 g/ha [1] | pest or weed control at 250 g/ha [1] | plant injury at 15.625 g/ha (corn (Zea mays) [2]) | plant injury at 62.5 g/ha (corn (Zea mays) [2]) | plant injury at 250 g/ha (corn (Zea mays) [2]) | pest or weed control at 15.625 g/ha [3] | pest or weed control at 62.5 g/ha [3] | pest or weed control at 250 g/ha [3] | pest or weed control at 15.625 g/ha [4] | pest or weed control at 62.5 g/ha [4] | pest or weed control at 250 g/ha [4] | pest or weed control at 15.625 g/ha [5] | pest or weed control at 62.5 g/ha [5] | pest or weed control at 250 g/ha [5] | pest or weed control at 15.625 g/ha [6] | pest or weed control at 62.5 g/ha [6] | pest or weed control at 250 g/ha [6] | pest or weed control at 15.625 g/ha [7] | pest or weed control at 62.5 g/ha [7] | also measured
CN1C[C@@H](c2ccc(C(F)(F)F)cc2)[C@H](C(=O)Nc2cc(O)nc(C(F)(F)F)n2)C1=O (racemic) [Compound 1614] | 0% | 0% | 80% | 0% | 0% | 0% | 0% | 0% | 0% | 0% | 0% | 0% | 0% | 0% | 0% | 0% | 0% | 70% | 0% | 0% | pest or weed control at 250 g/ha [7]: 80%; plant injury at 15.625 g/ha (corn (Zea mays) [8]): 0%; plant injury at 62.5 g/ha (corn (Zea mays) [8]): 0%; plant injury at 250 g/ha (corn (Zea mays) [8]): 0%; pest or weed control at 15.625 g/ha [9]: 0%; pest or weed control at 62.5 g/ha [9]: 0%; pest or weed control at 250 g/ha [9]: 0%; pest or weed control at 15.625 g/ha [10]: 0%; pest or weed control at 62.5 g/ha [10]: 0%; pest or weed control at 250 g/ha [10]: 0%; pest or weed control at 15.625 g/ha [11]: 0%; pest or weed control at 62.5 g/ha [11]: 0%; pest or weed control at 250 g/ha [11]: 0%; pest or weed control at 15.625 g/ha [12]: 0%; pest or weed control at 62.5 g/ha [12]: 0%; pest or weed control at 250 g/ha [12]: 20%
CN1C[C@@H](c2ccc(C(F)(F)F)cc2)[C@H](C(=O)Nc2cccc(C(F)(F)F)n2)C1=O (racemic) [Compound 1563] | 0% | 0% | 0% | 0% | 0% | 0% | 0% | 0% | 0% | 0% | 0% | 0% | 0% | 0% | 0% | 0% | 0% | 0% | 0% | 0% | pest or weed control at 250 g/ha [7]: 0%; plant injury at 15.625 g/ha (corn (Zea mays) [8]): 0%; plant injury at 62.5 g/ha (corn (Zea mays) [8]): 0%; plant injury at 250 g/ha (corn (Zea mays) [8]): 0%; pest or weed control at 15.625 g/ha [9]: 0%; pest or weed control at 62.5 g/ha [9]: 0%; pest or weed control at 250 g/ha [9]: 0%; pest or weed control at 15.625 g/ha [10]: 0%; pest or weed control at 62.5 g/ha [10]: 0%; pest or weed control at 250 g/ha [10]: 0%; pest or weed control at 15.625 g/ha [11]: 0%; pest or weed control at 62.5 g/ha [11]: 0%; pest or weed control at 250 g/ha [11]: 0%; pest or weed control at 15.625 g/ha [12]: 0%; pest or weed control at 62.5 g/ha [12]: 0%; pest or weed control at 250 g/ha [12]: 0%

From patent US12077503B2, “Substituted cyclic amides and their use as herbicides” (FMC CORPORATION, priority 2015, dated 2024)
